Values quoted from earlier work in patent US20050095286A1, “Extended release compositions” (Fabre Kramer Pharmaceuticals, Inc., priority 2003, published 2005).

Columns and labels:
[1] = target: T1, 5-HT1A receptor binding sites (Homo sapiens, UniProt P08908); settings: background statement, U.S. Pat. No. 5,010,078
T1 sequence (P08908 1-422): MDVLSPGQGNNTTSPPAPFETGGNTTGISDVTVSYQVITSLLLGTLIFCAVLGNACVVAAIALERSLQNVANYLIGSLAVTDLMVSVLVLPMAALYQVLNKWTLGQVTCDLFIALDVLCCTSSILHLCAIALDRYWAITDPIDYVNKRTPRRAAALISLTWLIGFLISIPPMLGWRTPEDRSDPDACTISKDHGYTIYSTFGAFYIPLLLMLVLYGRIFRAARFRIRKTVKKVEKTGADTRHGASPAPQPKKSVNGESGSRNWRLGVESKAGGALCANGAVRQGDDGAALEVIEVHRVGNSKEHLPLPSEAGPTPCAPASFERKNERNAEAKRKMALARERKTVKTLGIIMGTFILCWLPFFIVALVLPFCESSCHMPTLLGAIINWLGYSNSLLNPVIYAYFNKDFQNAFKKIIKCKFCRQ

[2] = target: D2-receptor binding sites (Homo sapiens, UniProt P14416); settings: background statement, U.S. Pat. No. 5,010,078
Chain of D2-receptor binding sites (P14416 whole entry): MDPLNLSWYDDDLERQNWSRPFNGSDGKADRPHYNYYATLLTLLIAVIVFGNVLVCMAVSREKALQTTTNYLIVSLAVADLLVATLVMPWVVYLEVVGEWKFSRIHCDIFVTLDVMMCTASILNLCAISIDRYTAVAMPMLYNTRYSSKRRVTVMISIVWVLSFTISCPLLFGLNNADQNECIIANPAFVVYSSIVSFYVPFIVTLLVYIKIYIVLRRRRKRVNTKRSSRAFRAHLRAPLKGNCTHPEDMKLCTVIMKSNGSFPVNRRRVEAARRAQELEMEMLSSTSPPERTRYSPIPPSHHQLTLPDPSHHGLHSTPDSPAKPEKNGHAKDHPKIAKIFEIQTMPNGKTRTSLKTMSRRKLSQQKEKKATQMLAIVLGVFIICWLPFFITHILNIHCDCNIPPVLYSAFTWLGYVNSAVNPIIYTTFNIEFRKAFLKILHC

[3] = target: T2, 5HT1a-receptors (Homo sapiens, UniProt P08908); settings: background statement
T2 sequence (P08908 1-422): T1 sequence (P08908 1-422)

[4] = background statement

SMILES | affinity for the 5-HT1A receptor binding site [1] | selectivity at the 5-HT1A and 5-HT2 versus D2 receptor binding sites [1] | affinity for the D2-receptor binding site [2] | affinity to 5HT1a-receptors [3] | therapeutic index [4]
O=C(NCCN1CCN(c2ncccn2)CC1)[C@]12C[C@H]3C[C@@H](C[C@H](C3)C1)C2 [adatanserin] | high affinity | demonstrated selectivity | high affinity | – | –
Cl.O=c1c(CO)coc2cc(OCCCN3CCC(c4noc5cc(F)ccc45)CC3)ccc12 [abaperidone] | – | – | – | high affinity | high therapeutic index
